Earlier results on two compounds are cited in patent US20080032891A1, “DEFOLIANT COMPOSITION AND METHOD” (ARYSTA L[…] AMERICA CORPORATION, priority 2006, published 2008).

Each structure is given as a SMILES string.

For `CN(C)C(=O)Nc1ccc(Cl)c(Cl)c1` [diuron, 3-(3,4-dichlorophenyl)-1,1-dimethylurea], the solubility in water entry was “insoluble in water”.
Turning to `O=C(Nc1ccccc1)Nc1cnns1` [Thidiazuron, 1-phenyl-3-(1,2,3-thiadiazol-5-yl)-urea], the solubility in water entry is listed as “insoluble in water”.
